Laboratory results: ChEMBL document CHEMBL1154543, “Facile synthesis and biological evaluation of a cell-permeable probe to detect redox-regulated proteins” (Bioorg Med Chem Lett, 2009)
Active and inactive are the calls of the source. The calls are words filed in the database; no cut-off is given here.

How the values were obtained:
HeLa [1] = experiment: Toxicity against human HeLa cells after 2 hrs by trypan blue exclusion method; format: cell-based
[2] = biological target: T1, Peroxiredoxin-1 (Homo sapiens) (UniProt Q06830); experiment: Binding affinity to sulfenic acid modified peroxiredoxin human HeLa cells at 10 mM by Western blot; format: cell-based
T1 sequence (whole entry): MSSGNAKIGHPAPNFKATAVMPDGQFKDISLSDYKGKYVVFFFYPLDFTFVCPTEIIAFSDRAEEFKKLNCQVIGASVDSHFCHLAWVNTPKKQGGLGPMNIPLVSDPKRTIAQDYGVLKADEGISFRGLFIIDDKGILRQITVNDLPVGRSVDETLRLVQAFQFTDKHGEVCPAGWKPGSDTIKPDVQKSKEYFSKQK

HeLa [3] = experiment: Binding affinity to sulfenic acid modified actin in human HeLa cells at 10 mM by Western blot; format: cell-based
[4] = Binding affinity to Cdc25A C384S mutant assessed as protein labeling based detection of sulfenic acid modification at 20 uM in presence of 5 mM DTT by Western blot
[5] = biological target: Glyceraldehyde-3-phosphate dehydrogenase (Homo sapiens) (UniProt P04406); experiment: Binding affinity to sulfenic acid modified GAPDH in human HeLa cells at 10 mM by Western blot; format: cell-based
Chain of Glyceraldehyde-3-phosphate dehydrogenase (Homo sapiens) (P04406 2-335 limits assumed): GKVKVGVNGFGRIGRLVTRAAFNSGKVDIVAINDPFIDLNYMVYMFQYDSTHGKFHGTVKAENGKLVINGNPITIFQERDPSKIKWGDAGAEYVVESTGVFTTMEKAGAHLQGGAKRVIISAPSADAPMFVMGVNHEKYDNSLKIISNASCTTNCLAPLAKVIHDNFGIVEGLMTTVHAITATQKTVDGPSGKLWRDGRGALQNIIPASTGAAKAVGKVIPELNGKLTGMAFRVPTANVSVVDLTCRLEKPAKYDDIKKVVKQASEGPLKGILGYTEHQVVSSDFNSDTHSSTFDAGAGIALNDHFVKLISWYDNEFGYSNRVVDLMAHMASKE

[6] = biological target: Glyceraldehyde-3-phosphate dehydrogenase (Homo sapiens) (UniProt P04406); experiment: Inhibition of DAz1-biotin binding to sulfenic acid modified GAPDH at 250 uM by Western blot
[7] = biological target: Glyceraldehyde-3-phosphate dehydrogenase (Homo sapiens) (UniProt P04406); experiment: Binding affinity to sulfenic acid modified GAPDH by Western blot
[8] = Binding affinity to Cdc25A C384S mutant assessed as protein labeling based detection of sulfenic acid modification at 10 mM by Western blot

Activity [2]: Active | Activity [4]: inactive | Activity [5]: Active | inhibition [6]: 90% | Activity [7]: Active | Activity [8]: Active
SMILES: [N-]=[N+]=NCCCNC(=O)C1CC(=O)CC(=O)C1
Activity (HeLa [1]): Non-toxic | Activity (HeLa [3]): Active
